From patent US20240425480A1, “NOVEL PYRIDINE DERIVATIVE COMPOUND AS RON INHIBITOR” (LG CHEM, LTD., priority 2021, published 2024)

Key:
[1] = biological target: RON (Homo sapiens, UniProt Q04912); assay: Inhibitory activity against RON, TR-FRET kinase assay; type: biochemical; settings: TR-FRET enzyme assay
Protocol: In order to measure the inhibitory activity of each of the compounds of Examples against RON, the IC50 of each of the compounds was measured using Time-resolved fluorescence energy transfer (TR-FRET).
(§1) Specifically, the compound was prepared to a concentration of 1 mM in 100% DMSO and was diluted 10 times in a stepwise manner through 3-fold dilution. The compound (2 ul) diluted in a stepwise manner was added to a 96-well-plate containing 48 ul of a 1× kinase reaction buffer (50 mM HEPES (pH 7.4), 0.01% Tween-20, 5 mM DTT, 0.5 mM Na3VO4, 2 mM EGTA, 10 mM MgCl2).
The RON protein was diluted to a concentration of 49.3 nM in a RON storage buffer (50 mM Tris-HCl (pH 7.5), 150 mM NaCl, 0.5 mM EDTA, 0.02% Triton X-100), and then diluted again to a concentration of 0.4 nM in a 1×kinase reaction buffer. As a substrate cocktail, a RON-specific substrate mixed solution (40 uM ULight-labeled Poly GT, 100 nM ATP) was prepared at a concentration 2 times the final reaction concentration.
(§2) Thereafter, a 384-well-plate was prepared, and 2.5 μl of each of the diluted compounds of Examples was added to a corresponding well of experimental group wells, and 2.5 μl of a 4% DMSO solution was dispensed into high control wells and low control wells.
(§3) Thereafter, 2.5 μL of 0.4 nM RON was dispensed into each of the high control wells and the experimental group wells, and 2.5 μL of the 1× kinase reaction buffer was added to the low control wells, and all the wells were centrifuged at room temperature for 40 seconds at 1,000 RPM, and then incubated at room temperature for 20-30 minutes. Then, 5 μL of the substrate cocktail (2×) was dispensed into each well, and all the wells were centrifuged at room temperature for 40 seconds at 1,000 RPM, and then incubated at room temperature for 60 minutes. Thereafter, 5 μL of 30 mM EDTA was added to each well to terminate the reaction, and all the wells were then incubated again at room temperature for 5 minutes. Thereafter, 5 μL of a 4×phosphotyrosine antibody (Perkin Elmer) containing europium was added to each well, and all the wells were then incubated at room temperature for 60 minutes. After the incubation, the 384-well-plate was read with the Vison plate reader. In this case, the excitation wavelength was 340 nm, and the emission wavelength was 620 nm and 665 nm. The IC50 value of each compound of Examples was derived using the GraphPd Prism7 program.

[2] = biological target: cMET (Homo sapiens, UniProt P08581); assay: Inhibitory activity against MET (cMET), TR-FRET kinase assay; type: biochemical; settings: TR-FRET enzyme assay
Protocol: In addition, in order to measure the enzyme activity inhibition for cMET, the evaluation was performed in the same manner as the enzyme activity inhibition measurement experiment for RON.
as §1, with “a 1×kinase” for “a 1× kinase”, “7.4), 0.05% BSA, 0.005%” for “7.4), 0.01%”, “Tween-20, 1” for “Tween-20, 5”, “mM MnCl2, 20” for “mM Na3VO4, 2 mM EGTA, 10”
The cMET protein was diluted to a concentration of 263 nM in a cMET storage buffer (50 mM Tris-HCl (pH 7.5), 150 mM NaCl, 0.05% Brij35, 1 mM DTT, 10% Glycerol), and then diluted again to a concentration of 2 nM in a 1×kinase reaction buffer. As a substrate cocktail, a MET-specific substrate mixed solution (5 uM TK peptide, 10 mM ATP) was prepared at a concentration 2 times the final reaction concentration.
as §2
as §3, with “of 2” for “of 0.4”, “nM cMET” for “nM RON”, “of 90” for “of 30”, “The […]” for “The IC50”

Chain of cMET (P08581 25-1390): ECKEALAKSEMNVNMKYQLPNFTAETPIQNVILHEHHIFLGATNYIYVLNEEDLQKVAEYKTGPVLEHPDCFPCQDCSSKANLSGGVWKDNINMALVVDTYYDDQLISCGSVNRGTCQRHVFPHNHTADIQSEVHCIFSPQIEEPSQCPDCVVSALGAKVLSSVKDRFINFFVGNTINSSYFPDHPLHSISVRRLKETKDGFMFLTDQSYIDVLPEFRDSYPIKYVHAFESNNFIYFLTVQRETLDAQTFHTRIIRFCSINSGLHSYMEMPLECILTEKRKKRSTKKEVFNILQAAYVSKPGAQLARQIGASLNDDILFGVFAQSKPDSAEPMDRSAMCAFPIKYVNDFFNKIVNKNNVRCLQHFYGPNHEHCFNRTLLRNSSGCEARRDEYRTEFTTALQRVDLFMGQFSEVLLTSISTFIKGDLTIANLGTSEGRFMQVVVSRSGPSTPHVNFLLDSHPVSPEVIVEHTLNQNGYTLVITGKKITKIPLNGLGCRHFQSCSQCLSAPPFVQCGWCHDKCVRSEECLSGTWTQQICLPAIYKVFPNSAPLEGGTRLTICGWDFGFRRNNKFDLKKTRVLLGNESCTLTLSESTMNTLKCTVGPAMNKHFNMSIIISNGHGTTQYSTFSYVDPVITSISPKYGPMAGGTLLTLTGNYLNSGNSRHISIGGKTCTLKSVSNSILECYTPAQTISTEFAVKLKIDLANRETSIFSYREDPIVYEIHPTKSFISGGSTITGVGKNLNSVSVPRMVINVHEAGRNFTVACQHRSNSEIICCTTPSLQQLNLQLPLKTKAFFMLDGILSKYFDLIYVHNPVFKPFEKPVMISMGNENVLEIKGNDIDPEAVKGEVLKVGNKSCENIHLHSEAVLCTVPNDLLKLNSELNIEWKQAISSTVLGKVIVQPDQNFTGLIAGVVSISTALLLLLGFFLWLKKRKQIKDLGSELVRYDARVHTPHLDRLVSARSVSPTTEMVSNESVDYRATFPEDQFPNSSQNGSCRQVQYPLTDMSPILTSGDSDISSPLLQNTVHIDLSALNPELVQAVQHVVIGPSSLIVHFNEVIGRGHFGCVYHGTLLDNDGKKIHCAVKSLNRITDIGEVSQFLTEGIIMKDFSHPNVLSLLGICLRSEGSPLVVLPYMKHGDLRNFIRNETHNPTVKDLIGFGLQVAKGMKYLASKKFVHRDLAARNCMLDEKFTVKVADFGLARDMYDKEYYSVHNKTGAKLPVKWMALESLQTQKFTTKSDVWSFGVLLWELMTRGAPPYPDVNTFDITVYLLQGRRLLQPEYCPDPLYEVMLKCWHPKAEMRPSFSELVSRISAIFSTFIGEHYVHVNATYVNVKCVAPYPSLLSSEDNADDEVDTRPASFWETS
Chain of RON (Q04912 25-1400, species assumed): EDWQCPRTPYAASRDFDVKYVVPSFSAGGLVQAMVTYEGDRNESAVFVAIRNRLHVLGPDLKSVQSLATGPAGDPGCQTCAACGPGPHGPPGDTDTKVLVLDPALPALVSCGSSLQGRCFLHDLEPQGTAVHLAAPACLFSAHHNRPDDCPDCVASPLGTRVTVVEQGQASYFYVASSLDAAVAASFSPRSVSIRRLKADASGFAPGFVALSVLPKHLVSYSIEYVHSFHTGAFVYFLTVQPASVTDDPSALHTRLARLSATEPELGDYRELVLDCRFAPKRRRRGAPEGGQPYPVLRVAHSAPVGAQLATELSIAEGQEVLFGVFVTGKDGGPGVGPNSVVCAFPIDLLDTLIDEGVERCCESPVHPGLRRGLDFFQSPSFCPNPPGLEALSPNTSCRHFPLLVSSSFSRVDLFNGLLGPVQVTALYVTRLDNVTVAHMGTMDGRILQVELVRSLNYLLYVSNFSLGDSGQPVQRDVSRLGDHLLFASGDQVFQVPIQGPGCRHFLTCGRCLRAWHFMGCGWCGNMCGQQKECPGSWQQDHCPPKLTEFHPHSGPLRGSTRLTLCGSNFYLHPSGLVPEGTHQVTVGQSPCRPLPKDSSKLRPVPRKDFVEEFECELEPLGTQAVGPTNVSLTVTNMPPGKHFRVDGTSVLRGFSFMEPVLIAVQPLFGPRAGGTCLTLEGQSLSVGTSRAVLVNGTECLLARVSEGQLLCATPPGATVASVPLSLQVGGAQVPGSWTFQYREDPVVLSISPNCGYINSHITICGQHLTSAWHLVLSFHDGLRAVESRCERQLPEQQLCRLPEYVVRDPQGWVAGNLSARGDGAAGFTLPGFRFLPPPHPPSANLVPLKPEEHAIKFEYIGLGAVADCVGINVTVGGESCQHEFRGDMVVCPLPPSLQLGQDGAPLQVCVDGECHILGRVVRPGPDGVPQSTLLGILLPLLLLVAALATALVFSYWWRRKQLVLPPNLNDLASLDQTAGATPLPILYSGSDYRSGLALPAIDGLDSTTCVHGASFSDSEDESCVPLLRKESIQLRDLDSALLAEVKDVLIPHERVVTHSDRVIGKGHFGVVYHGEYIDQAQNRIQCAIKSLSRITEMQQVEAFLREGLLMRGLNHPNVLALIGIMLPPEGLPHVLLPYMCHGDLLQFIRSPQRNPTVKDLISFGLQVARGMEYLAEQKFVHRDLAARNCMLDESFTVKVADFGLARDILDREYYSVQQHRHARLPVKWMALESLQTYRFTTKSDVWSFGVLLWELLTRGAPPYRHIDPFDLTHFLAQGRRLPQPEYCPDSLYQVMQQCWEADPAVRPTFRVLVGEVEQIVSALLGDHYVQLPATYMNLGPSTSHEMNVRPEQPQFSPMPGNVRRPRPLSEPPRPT

| Structure (SMILES) | IC50 [1] [nM] | IC50 [2] [µM] |
| --- | --- | --- |
| Nc1nccc(Oc2ccc(NC(=O)c3cnn(-c4ncccn4)c3C(F)(F)F)cc2F)c1Cl [Example 21, N-(4-((2-amino-3-chloropyridin-4-yl)oxy)-3-fluorophenyl)-1-(pyrimidin-2-yl)-5-(trifluoromethyl)-1H-pyrazole-4-carboxamide] | < 50 | > 5 |
| Nc1nccc(Oc2ccc(NC(=O)c3cnn(-c4ccncn4)c3C(F)(F)F)cc2F)c1Cl [Example 22, N-(4-((2-amino-3-chloropyridin-4-yl)oxy)-3-fluorophenyl)-1-(pyrimidin-4-yl)-5-(trifluoromethyl)-1H-pyrazole-4-carboxamide] | 50 to 500 | > 5 |
| Nc1nccc(Oc2ccc(NC(=O)c3cnn(-c4cc(F)ccn4)c3C(F)(F)F)cc2F)c1Cl [Example 25, N-(4-((2-amino-3-chloropyridin-4-yl)oxy)-3-fluorophenyl)-1-(4-fluoropyridin-2-yl)-5-(trifluoromethyl)-1H-pyrazole-4-carboxamide] | < 50 | > 5 |
| Nc1nccc(Oc2ccc(NC(=O)c3cnn(-c4ncc(F)cn4)c3C(F)(F)F)cc2F)c1Cl [Example 26, N-(4-((2-amino-3-chloropyridin-4-yl)oxy)-3-fluorophenyl)-1-(5-fluoropyrimidin-2-yl)-5-(trifluoromethyl)-1H-pyrazole-4-carboxamide] | 50 to 500 | > 5 |
| Nc1nccc(Oc2ccc(NC(=O)c3cnn(-c4ncc(F)cc4F)c3C(F)(F)F)cc2F)c1Cl [Example 29, N-(4-((2-amino-3-chloropyridin-4-yl)oxy)-3-fluorophenyl)-1-(3,5-difluoropyridin-2-yl)-5-(trifluoromethyl)-1H-pyrazole-4-carboxamide] | < 50 | > 5 |
| Nc1nccc(Oc2ccc(NC(=O)c3cnn(-c4ccc(F)nn4)c3C(F)(F)F)cc2F)c1Cl [Example 30, N-(4-((2-amino-3-chloropyridin-4-yl)oxy)-3-fluorophenyl)-1-(6-fluoropyridazin-3-yl)-5-(trifluoromethyl)-1H-pyrazole-4-carboxamide] | 500 to 5000 | > 5 |
| Nc1cc(Oc2ccc(NC(=O)c3cnn(-c4ncccc4F)c3C(F)(F)F)cc2F)ccn1 [Example 31, N-(4-((2-aminopyridin-4-yl)oxy)-3-fluorophenyl)-1-(3-fluoropyridin-2-yl)-5-(trifluoromethyl)-1H-pyrazole-4-carboxamide] | < 50 | > 5 |
| CCc1c(C(=O)Nc2ccc(Oc3ccnc(N)c3Cl)c(F)c2)cnn1-c1ncccc1F [Example 35, N-(4-((2-amino-3-chloropyridin-4-yl)oxy)-3-fluorophenyl)-5-ethyl-1-(3-fluoropyridin-2-yl)-1H-pyrazole-4-carboxamide] | < 50 | > 5 |
| CCc1c(C(=O)Nc2ccc(Oc3ccnc(N)c3I)c(F)c2)cnn1-c1ncccc1F [Example 37, N-(4-((2-amino-3-iodopyridin-4-yl)oxy)-3-fluorophenyl)-5-ethyl-1-(3-fluoropyridin-2-yl)-1H-pyrazole-4-carboxamide] | < 50 | 0.5 to 5 |
| Cc1csc(-n2ncc(C(=O)Nc3ccc(Oc4ccnc(N)c4Cl)c(F)c3)c2C(F)(F)F)n1 [Example 40, N-(4-((2-amino-3-chloropyridin-4-yl)oxy)-3-fluorophenyl)-1-(4-methylthiazol-2-yl)-5-(trifluoromethyl)-1H-pyrazole-4-carboxamide] | 50 to 500 | > 5 |

Continued, values first:

| IC50 [1] [nM] | IC50 [2] [µM] | Structure (SMILES) |
| --- | --- | --- |
| 50 to 500 | > 5 | Cc1ccnc(-n2ncc(C(=O)Nc3ccc(Oc4ccnc(N)c4Cl)c(F)c3)c2C(F)(F)F)n1 [Example 23, N-(4-((2-amino-3-chloropyridin-4-yl)oxy)-3-fluorophenyl)-1-(4-methylpyrimidin-2-yl)-5-(trifluoromethyl)-1 H-pyrazole-4-carboxamide] |
| 50 to 500 | 0.5 to 5 | CCOc1cccnc1-n1ncc(C(=O)Nc2ccc(Oc3ccnc(N)c3Cl)c(F)c2)c1C(F)(F)F [Example 24, N-(4-((2-amino-3-chloropyridin-4-yl)oxy)-3-fluorophenyl)-1-(3-ethoxypyridin-2-yl)-5-(trifluoromethyl)-1H-pyrazole-4-carboxamide] |
| 50 to 500 | > 5 | Nc1nccc(Oc2ccc(NC(=O)c3cnn(-c4ncc(O)cn4)c3C(F)(F)F)cc2F)c1Cl [Example 27, N-(4-((2-amino-3-chloropyridin-4-yl)oxy)-3-fluorophenyl)-1-(5-hydroxypyrimidin-2-yl)-5-(trifluoromethyl)-1H-pyrazole-4-carboxamide] |
| < 50 | 0.5 to 5 | Nc1nccc(Oc2ccc(NC(=O)c3cnn(-c4ncccc4F)c3C(F)(F)F)cc2F)c1I [Example 28, N-(4-((2-amino-3-iodopyridin-4-yl)oxy)-3-fluorophenyl)-1-(3-fluoropyridin-2-yl)-5-(trifluoromethyl)-1H-pyrazole-4-carboxamide] |
| < 50 | 0.5 to 5 | Nc1nccc(Oc2ccc(NC(=O)c3cnn(-c4ncccc4F)c3C(F)(F)F)c(F)c2)c1Cl [Example 32, N-(4-((2-amino-3-chloropyridin-4-yl)oxy)-2-fluorophenyl)-1-(3-fluoropyridin-2-yl)-5-(trifluoromethyl)-1H-pyrazole-4-carboxamide] |
| 50 to 500 | > 5 | Nc1nccc(Oc2ccc(NC(=O)c3cnn(-c4ncccc4F)c3C(F)(F)F)cc2F)c1NC1CCCCC1 [Example 33, N-(4-((2-amino-3-(cyclohexylamino)pyridin-4-yl)oxy)-3-fluorophenyl)-1-(3-fluoropyridin-2-yl)-5-(trifluoromethyl)-1H-pyrazole-4-carboxamide] |
| < 50 | > 5 | CC(C)Nc1c(Oc2ccc(NC(=O)c3cnn(-c4ncccc4F)c3C(F)(F)F)cc2F)ccnc1N [Example 34, N-(4-((2-amino-3-(isopropylamino)pyridin-4-yl)oxy)-3-fluorophenyl)-1-(3-fluoropyridin-2-yl)-5-(trifluoromethyl)-1H-pyrazole-4-carboxamide] |
| 50 to 500 | 0.5 to 5 | CCc1c(C(=O)Nc2ccc(Oc3ccnc(N)c3Cl)c(F)c2)cnn1-c1ncccc1Cl [Example 36, N-(4-((2-amino-3-chloropyridin-4-yl)oxy)-3-fluorophenyl)-1-(3-chloropyridin-2-yl)-5-ethyl-1H-pyrazole-4-carboxamide] |
| < 50 | 0.5 to 5 | CCc1c(C(=O)Nc2ccc(Oc3ccnc(N)c3I)c(F)c2)cnn1-c1ncccc1Cl [Example 38, N-(4-((2-amino-3-iodopyridin-4-yl)oxy)-3-fluorophenyl)-1-(3-chloropyridin-2-yl)-5-ethyl-1H-pyrazole-4-carboxamide] |
| 50 to 500 | > 5 | Cn1cc(-n2ncc(C(=O)Nc3ccc(Oc4ccnc(N)c4Cl)c(F)c3)c2C(F)(F)F)cn1 [Example 39, N-(4-((2-amino-3-chloropyridin-4-yl)oxy)-3-fluorophenyl)-1′-methyl-5-(trifluoromethyl)-1′H-[1,4′-bipyrazole]-4-carboxamide] |
